Results as given in patent US6040149A, “Assay for identifying agents which act on the ceramide-activated protein kinase, kinase suppressor of ras, and methods of using said agents” (priority 1997, dated 2000).

Legend:
Raf-1 [1] = assay: Raf-1 activity after co-expression with KSR in COS-7 cells; format: cell-based, human (Raf-1 expressed in COS-7 cells)
Procedure: Some studies used untagged KSR (n=4) and yielded identical results. At 60 hours post-transfection, cells were lysed with RIPA buffer (NP-40 buffer containing 0.1% SDS and 0.1% deoxy cholate). […] […]. The samples were boiled for 5 min, resolved with SDS-PAGE (7.5%) and autoradiographed.
[…]. After 30 min, the reaction was stopped by addition of Laemmli sample buffer and phosphorylated MBP were resolved by 15% SDS-PAGE, prior to autoradiography.
; a kind gift of Dr. Natalie Ahn) or 1.25 μg recombinant human MEK1 (Santa Cruz), 0.625 μg recombinant human ERK1 (UBI) and myelin basic protein (MBP). After 20-30 min, the reaction was stopped by addition of SDS sample buffer. […]

[2] = system: ceramide-activated protein kinase; assay: EGFR peptide phosphorylation by kinase in A-431 microsomal membranes / postnuclear supernatant; format: biochemical, human (A-431 epidermoid carcinoma cells)
Procedure: Kinetics of ^32 Pi incorporation into the EGFR peptide. […] The reaction was initiated by addition of 50 μl of [γ-^32 P]ATP (150 μM final concentration) and terminated by addition of 50 μl of 0.5 M ATP in 90% (vol/vol) formic acid. Samples were spotted on phosphocellulose paper, washed with 1 M acetic acid/4 mM pyrophosphate, and ^32 P incorporation was measured by liquid-scintillation counting, as described. A boiled protein blank was subtracted from each data value. The data (means) represent duplicate samples from one of two similar experiments. […]
Kinetics of ceramide-induced ^32 Pi incorporation into EGFR peptide. Peptide phosphorylation was done as described in FIG. 2 in the absence (.smallcircle.) or presence (.circle-solid.) of 0.5 μM C8 -ceramide. Phosphorylated peptide was resolved by HPLC. Values (means) represent data from three experiments.
Concentration-dependence of ceramide-induced ^32 Pi incorporation into EGFR peptide. Peptide phosphorylation reactions were done as described for FIG. 2, for 2 minutes, using various concentrations of ceramide (0.001-3 μM). Phosphorylated peptide was resolved by HPLC. Values (means) represent data from three experiments. […]
Phosphorylation was initiated at 22° C. by addition of 50 μl of [γ-^32 P] ATP (150 μM final concentration; 4000 dpm/pmol). For studies with lipid activators, ceramide and other lipids were dried under N2 and resuspended in the kinase assay buffer by bath sonication for 2 minutes at 37° C.
Phosphorylated peptide was quantified by two separate methods. For initial studies, samples were spotted on phosphocellulose paper, washed in 1 M acetic acid/4 mM pyrophosphate and subjected to liquid scintillation counting, according to methods well known to those skilled in the art. Values obtained from a boiled blank or a sample lacking peptide were subtracted from each determination. Alternatively, HPLC was done according to methods well known to those skilled in the art. For these studies, samples were first applied to a C18 Sep-Pak cartridge and eluted with 99.9% acetonitrile/0.1% trifluoroacetic acid. The eluates were lyophilized, resuspended in 6 M guanidine hydrochloride/200 mM Tris, pH 8.5 and applied to a C18 reverse-phase column (Dynamax, 4.6 mm i.d., Rainin, Woburn, Mass.). The peptide was eluted with a linear gradient (1% per minute) of acetonitrile at a flow rate of 1 ml/minute and was detected by measuring the Cerenkov radiation associated with 1-ml fractions.

[3] = system: ceramide-activated protein kinase; assay: Ceramide-activated protein kinase activity (EGFR peptide) in EL-4 cell fractions; conditions: 10 nM to 1 μM
Procedure: Effect of IL-1β on ceramide-activated protein kinase activity. […] Homogenates were centrifuged at 500×g for 5 minutes to remove nuclei and at 200,000×g for 30 minutes to prepare microsomal membranes. Membranes were resuspended into homogenizing buffer (2.2 μg membrane protein μl^-1). For assay of kinase activity, the reaction mixture contained 20 μl of microsomal membrane, 40 μl EGFR peptide (4 mg ml^-1 in 25 mM Hepes, pH 7.4) and 100 μl buffer (50 mM HEPES, pH 7.4, 20 mM MgCl2). Phosphorylation was initiated at 22° C. by addition of 40 μl [γ-^32 P] ATP (100 μM final concentration) and terminated at the indicated times by addition of 40 μl of 0.5 M ATP in 90% formic acid. Phosphorylated peptide was eluted from a C18 Sep pak cartridge (Millipore), lyophilized, and resolved by C18 reverse phase HPLC using a linear gradient of acetonitrile. […] All assays were performed under conditions determined as linear for time and enzyme concentration. Enzyme activity was determined from the percent conversion of substrate to product and the specific radioactivity of [γ-^32 P] ATP. […] Values (mean±range) represent duplicate determinations from two experiments.
Activity was measured by the transfer of ^32 P from the γ-position of ATP to EGFR peptide (AA 663-681 of the EGFR). The effect of IL-1β on kinase activity was determined using microsomal membranes derived from cells stimulated with IL-1β.

Raf-1 [4] = assay: Raf-1 phosphorylation in intact HL-60 cells; format: cell-based, human (HL-60 cells); conditions: TNF 1 nM; ceramide; sphingomyelinase 10 mU/ml
Procedure: To examine this possibility, intact HL-60 cells were metabolically labeled with ^32 P-orthophosphate for 4 hr followed by stimulation with TNF for the indicated times (FIG. 20A). […] Raf-1 proteins were resolved by SDS-PAGE and autoradiographed.
FIG. 20A--300×10^6 cells were resuspended at 37° C. in 15 ml of serum-free phosphate-free RPMI medium ([…]) containing 6 mCi ^32 P-orthophosphate. After […], cells were resuspended into the same buffer without radiolabel (5×10^7 /point) and stimulated with TNF (1 nM). At the indicated times, ice-cold serum-free phosphate-free RPMI was added and cells were homogenized as described in FIG. 17 in RIPA lysis buffer. Cell debris was removed by centrifugation at 700×g for 5 min. […] After SDS-PAGE, Raf-1 was transferred to an Immobilon PVDF (Millipore) membrane according to the vendor's instructions. […] The data (CPM/Raf protein) are presented as fold of control and represent one of three studies performed in triplicate.

Raf-1 [5] = assay: Kinase activity of immunoprecipitated Raf-1 toward MEK1 after HL-60 cell stimulation; format: cell-based, human (HL-60 cells)
Procedure: Recovery of MEK1 was monitored by western blot (Bottom Panel). Identical results were obtained with cells stimulated for 5 min with TNF.
Recovery of MEK1 was monitored by western blot (Bottom Panel).
These studies indicate that Raf-1 is a component of the sphingomyelin pathway mediating TNF action.
MEK1 autophosphorylation was for 45 min. An autoradiogram of MEK1 phosphorylation (top panel) and recovery of MEK1 protein by western blot (bottom panel) are shown. For western blot, proteins separated by SDS-PAGE were electrotransferred to an Immobilon PVDF membrane at 12 volts overnight at 4° C. Membranes were then blocked with 2% BSA in TBS [20 mM Tris, pH 7.6, 137 mM NaCl] for 1 hr and washed with TBST (TBS containing 0.2% Tween-20).

[6] = system: ceramide-activated protein kinase; conditions: ceramide 0.001 to 3 μM, of the control, ref. [40]; cited from earlier work
[7] = system: ceramide-activated protein kinase; conditions: treatment of intact cells; literature; cited from earlier work
Raf-1 [8] = assay: Activation of Raf-1 by KSR in vitro (MEK1 phosphorylation)

## Raf-1(T268V)
Raf-1 [1]
  Raf-1 activation in COS-7 cells co-expressing KSR: as effectively as wild type Raf-1

## Raf-1(T269V)
Raf-1 [1]
  Raf-1 activation in COS-7 cells co-expressing KSR: not activated

## ceramide
[2]; 0.5 μM ceramide
  duration of stimulation: at least 15 minutes
  onset of stimulation of EGFR peptide phosphorylation: ≤ 30 s
[2]; 0.5 μM ceramide, by 30 s
  increase in kinase activity: 2 fold
[2]; 2 minutes of stimulation
  lowest effective concentration: 1 nM
[2]; 2 minutes of stimulation, maximal effect for ceramide at 1 μM
  EGFR peptide phosphorylation, fold of control: 2.1 fold of control
[2]; 2 minutes of stimulation, read-out: ED50 for EGFR peptide phosphorylation
  EC50: ~30 nM
[2]; EGFR peptide phosphorylation
  concentration inducing maximal phosphorylation: 1 µM
[2]; EGFR peptide phosphorylation, A-431
  lowest effective concentration: 1 nM
[2]; words
  effect on EGFR peptide phosphorylation: similarly effective
[3]
  enhancement of kinase activity, of control: 1.5-2.5 of control
Raf-1 [4]
  Raf-1 phosphorylation in intact HL-60 cells: similarly induced Raf-1 phosphorylation
Raf-1 [5]
  effect on kinase activity of Raf-1 toward MEK1: similarly enhanced activity toward MEK1
[6]
  maximum enhancement of kinase activity: two-fold
[7]
  enhancement of CAP kinase autophosphorylation / activity: 5-10 fold
Raf-1 [8]
  KSR-dependent Raf-1 activity toward MEK1 in vitro: markedly enhanced
  activation of Raf-1 by ceramide in the absence of KSR: not stimulated
